Series [1] relates to cleavage of PARP and caspase-3 in LP1, OPM2 and JJN3 cells. As to the kind of experiment: Apoptotic signaling, immunoblotting of PARP and caspase-3. It is filed as cell-based. As to conditions: 0-20 μM or 10 μM for 3-12 hrs, time- and concentration-dependent. The source says: Because PI3K/AKT signaling is critical in modulating MM cell proliferation and survival, while interference with this pathway will lead to cell death and regression of MM tumors, we next asked whether C96 could induce MM cell apoptosis and inhibited MM cell proliferation. […] Next, we measured the induction of apoptosis by C96 in MM cell lines. Apoptotic cells are featured with inside-out expression of phosphatidylserine which is specifically identified by Annexin V, a cellular protein in the annexin group. Therefore, to measure the apoptotic level, C96-treated cells were stained with Annexin V-FITC and propidium iodide followed by flow cytometry analysis. […] For example, less apoptotic cells were induced by C96 in KMS11 cells in the Annexin V staining assay (Figure 5), the cleavage level of PARP in this cell line was also lower than that seen in other cell lines, such as OPM2 (Figure 6A). We next examined the apoptotic signaling pathway in the treatment with C96 with increasing exposure periods or concentrations. […]
Cells were treated with or without C96 for 24 hrs before being applied to lysate preparation in a lysis buffer (50 mM Tris-HCI, pH 7.4, 1% NP-40, 0.5% Na-deoxycholate, and 0.1% SDS, 150 mM NaCl, 2 mM EDTA, 2 mM Na3VO4, and 5 mM NaF). […] All immunoblotting signals were further analyzed with Quality One Quality One software (Bio-Rad, Berkeley, CA, USA).
(Immunoblotting shows a protein as a band on a membrane.)

Series [2] can be described thus: Oral LD50.

Take `O=C1NC(=O)C(=CC=Cc2cccs2)C(=O)N1` [C96, 5-(3-(2-thienyl)-2-propen-1-ylidene)-2,4,6(1H,3H,5H)-pyrimidinetrione]: the “cleavage of PARP and caspase-3” value in series [1] is “induced cleavage of PARP and caspase-3”. Moreover, in series [2], the “100 mg/kg body weight dose as fraction of the oral LD50” value is 1/10.
